In patent publication EP0984975B1, “MULTICYCLIC ERYTHROMYCIN DERIVATIVES” (Abbott Laboratories, priority 1997, dated 1998):

Columns and labels:
Assay in all cases: In vitro assay of antibacterial activity (agar dilution MIC)
Format in all cases: cell-based
CANDIDA ALBICANS CCH 442 = settings: BHI agar, 35-37 °C for 20 to 24 hours, unit assumed
Experimental: (§1) Representative compounds of the present invention were assayed in vitro for antibacterial activity as follows: Twelve petri dishes containing successive aqueous dilutions of the test compound mixed with 10 mL of sterilized Brain Heart Infusion (BHI) agar (Difco 0418-01-5) were prepared. Each plate was inoculated with 1:100 (or 1:10 for slow-growing strains, such as Micrococcus and Streptococcus) dilutions of up to 32 different microorganisms, using a Steers replicator block. The inoculated plates were incubated at 35-37 °C for 20 to 24 hours. In addition, a control plate, using BHI agar containing no test compound, was prepared and incubated at the beginning and end of each test.
(§2) An additional plate containing a compound having known susceptibility patterns for the organisms being tested and belonging to the same antibiotic class as the test compound was also prepared and incubated as a further control, as well as to provide test-to-test comparability. Erythromycin A was used for this purpose.
(§3) After incubation, each plate was visually inspected. The minimum inhibitory concentration (MIC) was defined as the lowest concentration of drug yielding no growth, a slight haze, or sparsely isolated colonies on the inoculum spot as compared to the growth control.

EN[…] ATCC 8043 = settings: BHI agar, 35-37 °C for 20 to 24 hours, unit assumed
Experimental: as §1, §2, §3

ESCHERICHIA COLI DC-2 = settings: BHI agar, 35-37 °C for 20 to 24 hours, unit assumed
Experimental: as §1, §2, §3

ESCHERICHIA COLI JUHL = settings: unit assumed
Experimental: as §1, §2, §3

ESCHERICHIA COLI SS = settings: unit assumed
Experimental: as §1, §2, §3

[1] = system: MYCOBACTERIUM SMEGMATIS ATCC 114; settings: BHI agar, 35-37 °C for 20 to 24 hours, unit assumed
Experimental: as §1, §2, §3

M[…] ATCC 4698 = settings: BHI agar, 35-37 °C for 20 to 24 hours, unit assumed
Experimental: as §1, §2, §3

M[…] ATCC 9341 = settings: BHI agar, 35-37 °C for 20 to 24 hours, unit assumed
Experimental: as §1, §2, §3

N. ASTEROIDES ATCC 9970 = settings: BHI agar, 35-37 °C for 20 to 24 hours, unit assumed
Experimental: as §1, §2, §3

[2] = system: STAPHYLOCOCCUS AUREUS 1775; settings: BHI agar, 35-37 °C for 20 to 24 hours, unit assumed
Experimental: as §1, §2, §3

[3] = system: STAPHYLOCOCCUS AUREUS A-5278; settings: BHI agar, 35-37 °C for 20 to 24 hours, unit assumed
Experimental: as §1, §2, §3

[4] = system: STAPHYLOCOCCUS AUREUS A5177; settings: BHI agar, 35-37 °C for 20 to 24 hours, unit assumed
Experimental: as §1, §2, §3

[5] = system: STAPHYLOCOCCUS AUREUS ATCC 6538P; settings: BHI agar, 35-37 °C for 20 to 24 hours, unit assumed
Experimental: as §1, §2, §3

[6] = system: STAPHYLOCOCCUS AUREUS CMX 553; settings: BHI agar, 35-37 °C for 20 to 24 hours, unit assumed
Experimental: as §1, §2, §3

[7] = system: STAPHYLOCOCCUS AUREUS CMX 642A; settings: BHI agar, 35-37 °C for 20 to 24 hours, unit assumed
Experimental: as §1, §2, §3

[8] = system: STAPHYLOCOCCUS AUREUS NCTC10649M; settings: BHI agar, 35-37 °C for 20 to 24 hours, unit assumed
Experimental: as §1, §2, §3

[9] = system: STAPHYLOCOCCUS EPIDERMIDIS 3519; settings: unit assumed
Experimental: as §1, §2, §3

[10] = system: STREPTOCOCCUS BOVIS A-5169; settings: BHI agar, 35-37 °C for 20 to 24 hours, unit assumed
Experimental: as §1, §2, §3

[11] = system: STREPTOCOCCUS PYOGENES 930; settings: BHI agar, 35-37 °C for 20 to 24 hours, unit assumed
Experimental: as §1, §2, §3

[12] = system: STREPTOCOCCUS PYOGENES EES61; settings: BHI agar, 35-37 °C for 20 to 24 hours, unit assumed
Experimental: as §1, §2, §3

[13] = system: STREPTOCOCCUS PYOGENES PIU 2548; settings: BHI agar, 35-37 °C for 20 to 24 hours, unit assumed
Experimental: as §1, §2, §3

STR[…] 508 = settings: BHI agar, 35-37 °C for 20 to 24 hours, unit assumed
Experimental: as §1, §2, §3

[14] = ESCHERICHIA COLI JUHL, BHI agar, 35-37 °C for 20 to 24 hours
[15] = ESCHERICHIA COLI SS, BHI agar, 35-37 °C for 20 to 24 hours
[16] = MYCOBACTERIUM SMEGMATIS ATCC 114
[17] = STAPHYLOCOCCUS EPIDERMIDIS 3519, BHI agar, 35-37 °C for 20 to 24 hours
[18] = STREPTOCOCCUS PYOGENES PIU 2548
[19] = STREPTOCOCCUS AGALACTIAE CMX 508

SMILES	Antibacterial Activity (MIC's) (CANDIDA ALBICANS CCH 442)	Antibacterial Activity (MIC's) (EN[…] ATCC 8043; ENTEROCOCCUS FAECIUM ATCC 8043)	Antibacterial Activity (MIC's) (ESCHERICHIA COLI DC-2)	Antibacterial Activity (MIC's) (ESCHERICHIA COLI JUHL; [14])	Antibacterial Activity (MIC's) (ESCHERICHIA COLI SS; [15])	Antibacterial Activity (MIC's) [1, 16]	Antibacterial Activity (MIC's) (M[…] ATCC 4698; MICROCOCCUS LUTEUS ATCC 4698)	Antibacterial Activity (MIC's) (M[…] ATCC 9341; MICROCOCCUS LUTEUS ATCC 9341)	Antibacterial Activity (MIC's) (N. ASTEROIDES ATCC 9970)	Antibacterial Activity (MIC's) [2]	Antibacterial Activity (MIC's) [3]	Antibacterial Activity (MIC's) [4]	Antibacterial Activity (MIC's) [5]	Antibacterial Activity (MIC's) [6]	Antibacterial Activity (MIC's) [7]	Antibacterial Activity (MIC's) [8]	Antibacterial Activity (MIC's) [9, 17]	Antibacterial Activity (MIC's) ([10]; STREPTOCOCCUS BOVIS A-5169)	Antibacterial Activity (MIC's) ([11]; STREPTOCOCCUS PYOGENES 930)	Antibacterial Activity (MIC's) ([12]; STREPTOCOCCUS PYOGENES EES61)	further results
CC[C@H]1OC(=O)[C@H](C)C(=O)[C@H](C)[C@@H](O[C@@H]2O[C@H](C)C[C@H](N(C)C)[C@H]2O)[C@](C)(OC)C[C@@H](C)C2Nc3ccccc3N3C(=O)O[C@@]1(C)[C@H]3[C@H]2C (single isomer, unassigned) [Ex 3, Compound of Formula (I): R^1 is methoxy; R^2 is H, R^3 is H, the double bond is absent, A, B, D and E are H, and Y and Z taken together with the atom to which they are attached form an oxo group]	> 100 µg/mL	12.5 µg/mL	> 100 µg/mL	> 100 µg/mL	100 µg/mL	50 µg/mL	25 µg/mL	3.1 µg/mL	6.2 µg/mL	> 100 µg/mL	> 100 µg/mL	25 µg/mL	25 µg/mL	50 µg/mL	50 µg/mL	50 µg/mL	50 µg/mL	1.56 µg/mL	> 100 µg/mL	3.1 µg/mL	Antibacterial Activity (MIC's) [13, 18]: 25 µg/mL; Antibacterial Activity (MIC's) (STR[…] 508; [19]): 3.1 µg/mL
C=CCO[C@]1(C)C[C@@H](C)C2=Nc3ccccc3N3C(=O)O[C@](C)([C@@H](CC)OC(=O)[C@H](C)C(=O)[C@H](C)[C@H]1O[C@@H]1O[C@H](C)C[C@H](N(C)C)[C@H]1O)[C@H]3[C@H]2C [Ex 8, Compound of Formula (I): R^1 is allyloxy; R^2 is H, R^3 is absent, the double bond is present, A, B, D and E are H, and Y and Z taken together with the atom to which they are attached form an oxo group]	> 100 µg/mL	0.78 µg/mL	> 100 µg/mL	> 100 µg/mL	12.5 µg/mL	6.2 µg/mL	1.56 µg/mL	0.78 µg/mL	3.1 µg/mL	> 100 µg/mL	> 100 µg/mL	0.78 µg/mL	0.78 µg/mL	0.78 µg/mL	0.78 µg/mL	0.78 µg/mL	1.56 µg/mL	0.1 µg/mL	> 100 µg/mL	0.39 µg/mL	Antibacterial Activity (MIC's) [13, 18]: 0.78 µg/mL; Antibacterial Activity (MIC's) (STR[…] 508; [19]): 0.39 µg/mL
CC[C@H]1OC(=O)[C@H](C)[C@@H](O[C@H]2C[C@@](C)(OC)[C@@H](O)[C@H](C)O2)[C@H](C)[C@@H](O[C@@H]2O[C@H](C)C[C@H](N(C)C)[C@H]2O)[C@](C)(O)C[C@@H](C)C(=O)[C@H](C)[C@@H](O)[C@]1(C)O [Ery A, Erythromycin A, reference compound]	> 100 µg/mL		100 µg/mL						0.1 µg/mL	> 100 µg/mL	> 100 µg/mL	3.1 µg/mL	0.2 µg/mL	0.39 µg/mL	0.39 µg/mL	0.39 µg/mL					Antibacterial Activity (MIC's) (EN[…] ATCC 8043; EN[…] ATCC 8043): 0.1 µg/mL; Antibacterial Activity (MIC's) (ESCHERICHIA COLI JUHL): 50 µg/mL; Antibacterial Activity (MIC's) (ESCHERICHIA COLI SS): 0.39 µg/mL; Antibacterial Activity (MIC's) ([1]; MYC[…] ATCC 114): 1.56 µg/mL; Antibacterial Activity (MIC's) (M[…] ATCC 4698; M[…] ATCC 4698): 0.39 µg/mL; Antibacterial Activity (MIC's) (M[…] ATCC 9341; M[…] ATCC 9341): 0.02 µg/mL; Antibacterial Activity (MIC's) [9]: 0.2 µg/mL; Antibacterial Activity (MIC's) ([10]; STR[…] A-5169): 0.01 µg/mL; Antibacterial Activity (MIC's) ([11]; STR[…] 930): > 100 µg/mL; Antibacterial Activity (MIC's) ([12]; STR[…] EES61): 0.02 µg/mL; Antibacterial Activity (MIC's) ([13]; STR[…] PIU 2548): 3.1 µg/mL; Antibacterial Activity (MIC's) (STR[…] 508; STR[…] 508): 0.02 µg/mL
